{"source": "patent US20220220041A1", "about": "“USE OF UREA AS AN ANTIMICROBIAL ADDITIVE IN AN AQUEOUS SUSPENSION” (Omya International AG, priority 2019, published 2022)", "key": {"[1]": {"tested_on": "natural resident bacteria of industrial grade urea, not inoculated", "assay": "Example 3 preservation efficacy: H60 slurry with industrial grade urea solution, not inoculated, TVC", "format": "cell-based", "settings": "industrial grade urea 5.5%, calcium carbonate 69%, water 25.5% w/w, inoculum none, 30° C.", "experimental": "(§1) All quoted bacterial counts (Total viable counts (TVC) values), unless otherwise indicated, are given in cfu/ml and determined after at least 2 days following plate-out and incubation at 30° C. and in accordance with the counting method described in “Bestimmung von aerobe mesophilen Keimen”, Schweizerisches Lebensmittelbuch, chapter 56, section 7.01, edition of 1985, revised version of 1988.\n(§2) Unless otherwise stated, per tryptic soy agar plate (TSA, prepared using BD 236950) 0.1 ml of a solution or suspension is plated. Counts from 10000 cfu/ml to 99999 cfu/ml are reported as >1E4 cfu/ml. Counts from 100000 cfu/ml to 999999 cfu/ml are reported as >1E5 cfu/ml. Counts above 1000000 cfu/ml are reported as >1E6 cfu/ml.\n(§3) 50 g sterile calcium carbonate slurry (H60) with a solid content of 77.3 wt.-%, based on the total weight of the H60 slurry is supplemented with industrial grade 50% (w/w) urea solution (Yara Canda Inc.) or water to different final concentrations. The industrial grade contained natural resident (i.e. bacteria in a non-growing state) bacteria. The bacterial of the industrial urea burden is 5 cfu/3 ml as determined by TVC. The species are identified by characterizing the grown colonies from the TVC by 16 S RNA sequencing, known to the person skilled in the art.\nThe species identified are Sporosarcina koreensis, (Gram positive, urease positive, spore forming), Paenibacillus sp., (Gram positive, urease positive, spore forming) and Halobacillus trueperi (Gram positive, urease negative, spore forming).\n(§4) The samples are further artificially inoculated with 1 ml non-sterile calcium carbonate slurry (H60), 1 ml non-sterile calcium carbonate slurry (H90), 0.02 ml overnight culture of Escherichia coli (DSMZ 46295) and 0.02 ml overnight culture Pseudomonas putida. The control sample are not inoculated. […]"}, "Pseudomonas putida": {"tested_on": "Pseudomonas putida", "assay": "Example 3 preservation efficacy: H60 slurry with industrial grade urea solution, P. putida inoculum, TVC", "format": "cell-based", "settings": "industrial grade urea 5.5%, calcium carbonate 69%, water 25.5% w/w, 30° C.", "experimental": "as §1, §2\n(§5) For the preparation of inoculum with a single bacterial species (for example Escherichia coli (DSMZ 46295) or Pseudomonas putida), bacteria are spread onto Tryptic soy broth agar (BD, 236950) by dilution streaking followed by incubation at 30° C. for at least 24 h until colonies appear. Overnight cultures are generated by inoculation of 3 ml Tryptic soy broth (Fluka 22092) with a single colony followed incubation with agitation at […] at 30° C. for 24 h.\nas §3, §4"}, "[2]": {"tested_on": "Escherichia coli (DSMZ 46295)", "assay": "Example 2 preservation efficacy: H60 slurry with 61 wt.-% urea solution, E. coli inoculum, TVC", "format": "cell-based", "experimental": "as §1, §2, §5\n50 g sterile slurry H60 with a solid content of 76.5 wt.-%, based on the total weight of the H60 slurry is supplemented with different amounts of 61 wt.-% urea solution or water. The samples are then inoculated with 1 ml non-sterile calcium carbonate slurry (H60), 1 ml non-sterile calcium carbonate slurry (H90), 0.02 ml overnight culture of Escherichia coli (DSMZ 46295) and 0.02 ml overnight culture of Pseudomonas putida. The control samples are not inoculated. Samples are incubated at 30° C. and the TVC and pH are determined at various time points (0 day, 1 day, 4, days, 8 days, 9 days and/or 13 days)."}, "[3]": {"assay": "Example 5: addition of dry urea to H60 slurry, viscosity and stability of the product", "format": "physicochemical", "settings": "2.68 wt.-% urea and 73 wt.-% calcium carbonate", "experimental": "The Brookfield viscosity is measured by a Brookfield DV-III Ultra viscometer at 20° C.±3° C. at 100 rpm using an LV-3 spindle and is specified in mPa·s. Once the spindle has been inserted into the sample, the measurement is started with a constant rotating speed of 100 rpm.\n1 kg calcium carbonate slurry (H60) with a solid content of 75 wt.-%, based on the total weight of the H60 slurry is stirred at approximately 500 rotations per minute (rpm) and 27.5 g dry urea is added slowly during agitation, leading to 2.68 wt.-% urea and 73 wt.-% calcium carbonate, based on the total weight of the obtained slurry. The blend is further mixed for 30 minutes at slow speed (<500 rpm)."}, "[4]": {"settings": "Table 2, urea 2.75%, calcium carbonate 73.1%, water 24.15% w/w, inoculum E. coli, 30° C."}, "[5]": {"settings": "Table 2, urea 7.6%, calcium carbonate 67.1%, water 25.3% w/w, inoculum E. coli, 30° C."}, "[6]": {"settings": "Table 3, urea 0.65%, calcium carbonate 75.7%, water 23.65% w/w, inoculum E. coli, 30° C."}, "[7]": {"settings": "Table 3, urea 1.28%, calcium carbonate 74.9%, water 23.82% w/w, inoculum E. coli, 30° C."}, "[8]": {"settings": "Table 3, urea 2.75%, calcium carbonate 73.1%, water 24.15% w/w, inoculum E. coli, 30° C."}}}
{"compound": "NC(N)=O", "note": "[urea]", "values": [{"measurement": "TVC cfu/ml Day 4", "setting": "[1]", "result": "<100", "unit": "cfu/ml"}, {"measurement": "TVC cfu/ml Day 8", "setting": "[1]", "result": 100, "unit": "cfu/ml"}, {"measurement": "TVC cfu/ml Day 11", "setting": "[1]", "result": "<100", "unit": "cfu/ml"}, {"measurement": "TVC cfu/ml Day 13", "setting": "[1]", "result": "<100", "unit": "cfu/ml"}, {"measurement": "TVC cfu/ml Day 1", "setting": "[1]; detection limit 100 cfu/ml", "result": "<100", "unit": "cfu/ml"}, {"measurement": "TVC cfu/ml Day 1", "setting": "Pseudomonas putida", "result": "<100", "unit": "cfu/ml"}, {"measurement": "TVC cfu/ml Day 4", "setting": "Pseudomonas putida", "result": "<100", "unit": "cfu/ml"}, {"measurement": "TVC cfu/ml Day 8", "setting": "Pseudomonas putida", "result": "<100", "unit": "cfu/ml"}, {"measurement": "TVC cfu/ml Day 11", "setting": "Pseudomonas putida", "result": "<100", "unit": "cfu/ml"}, {"measurement": "TVC cfu/ml Day 13", "setting": "Pseudomonas putida", "result": "<100", "unit": "cfu/ml"}, {"measurement": "TVC cfu/ml Day 1", "setting": "[2]; [4]", "result": "<100", "unit": "cfu/ml"}, {"measurement": "TVC cfu/ml Day 4", "setting": "[2]; [4]", "result": "<100", "unit": "cfu/ml"}, {"measurement": "TVC cfu/ml Day 8", "setting": "[2]; [4]", "result": 500, "unit": "cfu/ml"}, {"measurement": "TVC cfu/ml Day 13", "setting": "[2]; [4]", "result": "<100", "unit": "cfu/ml"}, {"measurement": "TVC cfu/ml Day 1", "setting": "[2]; [5]", "result": "<100", "unit": "cfu/ml"}, {"measurement": "TVC cfu/ml Day 4", "setting": "[2]; [5]", "result": "<100", "unit": "cfu/ml"}, {"measurement": "TVC cfu/ml Day 8", "setting": "[2]; [5]", "result": "<100", "unit": "cfu/ml"}, {"measurement": "TVC cfu/ml Day 13", "setting": "[2]; [5]", "result": 100, "unit": "cfu/ml"}, {"measurement": "TVC cfu/ml Day 1", "setting": "[2]; [6]", "result": ">1E5", "unit": "cfu/ml"}, {"measurement": "TVC cfu/ml Day 4", "setting": "[2]; [6]", "result": ">1E5", "unit": "cfu/ml"}, {"measurement": "TVC cfu/ml Day 1", "setting": "[2]; [7]", "result": "<100", "unit": "cfu/ml"}, {"measurement": "TVC cfu/ml Day 4", "setting": "[2]; [7]", "result": "<100", "unit": "cfu/ml"}, {"measurement": "TVC cfu/ml Day 1", "setting": "[2]; [8]", "result": "<100", "unit": "cfu/ml"}, {"measurement": "TVC cfu/ml Day 4", "setting": "[2]; [8]", "result": "<100", "unit": "cfu/ml"}, {"measurement": "TVC cfu/ml Day 9", "setting": "[2]; [8]", "result": "<100", "unit": "cfu/ml"}, {"measurement": "preservation of calcium carbonate slurries from bacterial growth, duration", "setting": "[2]; high urea concentrations, summary of tables 2 and 3, all inocula", "result": "at least 13 days"}, {"measurement": "formation of clumps after addition of dry urea", "setting": "[3]", "result": "No clumps were formed"}, {"measurement": "viscosity after addition of dry urea", "setting": "[3]", "result": "does not increase"}, {"measurement": "stability of the product", "setting": "[3]; 7 days at room temperature and 40° C.", "result": "remains stable"}]}
